Data published in ChEMBL document CHEMBL2413072, “Synthesis and in vitro anticancer studies of novel C-2 arylidene congeners of lantadenes” (2013).

How the values were obtained:
Format in all cases: functional
MDA-MB-435 = experiment: Growth inhibition of human MDA-MB-435 cells assessed as cell growth at 10^-4 M by sulforhodamine B assay; conditions: read-out: Activity
Malme-3M [1] = experiment: Growth inhibition of human MALME-3M cells by sulforhodamine B assay
[2] = Growth inhibition of human NCI-ADR-RES cells assessed as cell growth at 10^-4 M by sulforhodamine B assay; conditions: read-out: Activity
KM12 [3] = experiment: Growth inhibition of human KM12 cells assessed as cell growth at 10^-6 M by sulforhodamine B assay; conditions: read-out: Activity
OVCAR-4 [4] = experiment: Growth inhibition of human OVCAR4 cells by sulforhodamine B assay
ACHN = experiment: Growth inhibition of human ACHN cells assessed as cell growth at 10^-6 M by sulforhodamine B assay; conditions: read-out: Activity
MOLT-4 [5] = experiment: Growth inhibition of human MOLT4 cells assessed as cell growth at 10^-8 M by sulforhodamine B assay; conditions: read-out: Activity
KM12 [6] = experiment: Growth inhibition of human KM12 cells assessed as cell growth at 10^-4 M by sulforhodamine B assay; conditions: read-out: Activity
Malme-3M [7] = experiment: Growth inhibition of human MALME-3M cells assessed as cell growth at 10^-6 M by sulforhodamine B assay; conditions: read-out: Activity
NCI-H226 = experiment: Growth inhibition of human NCI-H226 cells assessed as cell growth at 10^-8 M by sulforhodamine B assay; conditions: read-out: Activity
NCI-H322M = experiment: Growth inhibition of human NCI-H322M cells assessed as cell growth at 10^-6 M by sulforhodamine B assay; conditions: read-out: Activity
A498 = experiment: Growth inhibition of human A498 cells assessed as cell growth at 10^-6 M by sulforhodamine B assay; conditions: read-out: Activity
CCRF-CEM = experiment: Growth inhibition of human CCRF-CEM cells assessed as cell growth at 10^-7 M by sulforhodamine B assay; conditions: read-out: Activity
OVCAR-4 [8] = experiment: Growth inhibition of human OVCAR4 cells assessed as cell growth at 10^-8 M by sulforhodamine B assay; conditions: read-out: Activity
[9] = Growth inhibition of human HCC2998 cells assessed as cell growth at 10^-8 M by sulforhodamine B assay; conditions: HCC 2998, read-out: Activity
SK-MEL-5 = experiment: Growth inhibition of human SK-MEL-5 cells by sulforhodamine B assay
SN12C = experiment: Growth inhibition of human SN12C cells assessed as cell growth at 10^-8 M by sulforhodamine B assay; conditions: read-out: Activity
HL-60(TB) = experiment: Growth inhibition of human HL-60(TB) cells assessed as cell growth at 10^-7 M by sulforhodamine B assay; conditions: read-out: Activity
MOLT-4 [10] = experiment: Growth inhibition of human MOLT4 cells by sulforhodamine B assay
MOLT-4 [11] = experiment: Growth inhibition of human MOLT4 cells assessed as cell growth at 10^-7 M by sulforhodamine B assay; conditions: read-out: Activity
UACC-257 [12] = experiment: Growth inhibition of human UACC257 cells by sulforhodamine B assay
RXF 393 = experiment: Growth inhibition of human RXF393 cells assessed as cell growth at 10^-7 M by sulforhodamine B assay; conditions: read-out: Activity
786-0 = experiment: Growth inhibition of human 786-0 cells assessed as cell growth at 10^-4 M by sulforhodamine B assay; conditions: read-out: Activity
SW-620 = experiment: Growth inhibition of human SW620 cells assessed as cell growth at 10^-7 M by sulforhodamine B assay; conditions: read-out: Activity
SNB-75 = experiment: Growth inhibition of human SNB75 cells assessed as cell growth at 10^-7 M by sulforhodamine B assay; conditions: read-out: Activity
OVCAR-8 = experiment: Growth inhibition of human OVCAR8 cells by sulforhodamine B assay
HOP-92 [13] = experiment: Growth inhibition of human HOP92 cells assessed as cell growth at 10^-4 M by sulforhodamine B assay; conditions: read-out: Activity
MDA-MB-231 [14] = experiment: Growth inhibition of human MDA-MB-231 cells by sulforhodamine B assay
HOP-92 [15] = experiment: Growth inhibition of human HOP92 cells by sulforhodamine B assay
[16] = Growth inhibition of human NCI-ADR-RES cells assessed as cell growth at 10^-8 M by sulforhodamine B assay; conditions: read-out: Activity
M14 = experiment: Growth inhibition of human M14 cells assessed as cell growth at 10^-7 M by sulforhodamine B assay; conditions: read-out: Activity
NCI-H460 = experiment: Growth inhibition of human NCI-H460 cells assessed as cell growth at 10^-8 M by sulforhodamine B assay; conditions: read-out: Activity
DU-145 [17] = experiment: Growth inhibition of human DU145 cells assessed as cell growth at 10^-7 M by sulforhodamine B assay; conditions: read-out: Activity
UACC-257 [18] = experiment: Growth inhibition of human UACC257 cells assessed as cell growth at 10^-8 M by sulforhodamine B assay; conditions: read-out: Activity
[19] = Growth inhibition of human Hs 578T cells by sulforhodamine B assay
SK-MEL-2 = experiment: Growth inhibition of human SK-MEL-2 cells by sulforhodamine B assay
MDA-MB-231 [20] = experiment: Growth inhibition of human MDA-MB-231 cells assessed as cell growth at 10^-8 M by sulforhodamine B assay; conditions: read-out: Activity
DU-145 [21] = experiment: Growth inhibition of human DU145 cells assessed as cell growth at 10^-8 M by sulforhodamine B assay; conditions: read-out: Activity
[22] = read-out: LC50 (the source's name)
[23] = read-out: pLC50 (the source's name) (converted)

Compound: C/C=C(/C)C(=O)O[C@@H]1CC(C)(C)C[C@H]2C3=CC[C@@H]4[C@@]5(C)CCC(=O)C(C)(C)[C@@H]5CC[C@@]4(C)[C@]3(C)CC[C@@]12C(=O)O [LANTADENE A]
- growth at 100 µM (MDA-MB-435): 25%
- GI50 (Malme-3M [1]; read-out: GI50): 7.91 µM
- CC50 (Malme-3M [1]; [22]): > 100 µM
- TGI (Malme-3M [1]; read-out: TGI): > 100 µM
- GI50 (Malme-3M [1]; read-out: pGI50 (converted)): 7.94 µM
- CC50 (Malme-3M [1]; [23]): > 100 µM
- TGI (Malme-3M [1]; read-out: pTGI (converted)): > 100 µM
- growth at 100 µM [2]: 18%
- growth at 1 µM (KM12 [3]): 84%
- GI50 (OVCAR-4 [4]; read-out: GI50): 5.64 µM
- CC50 (OVCAR-4 [4]; [22]): > 100 µM
- TGI (OVCAR-4 [4]; read-out: TGI): > 100 µM
- GI50 (OVCAR-4 [4]; read-out: pGI50 (converted)): 5.62 µM
- CC50 (OVCAR-4 [4]; [23]): > 100 µM
- TGI (OVCAR-4 [4]; read-out: pTGI (converted)): > 100 µM
- growth at 1 µM (ACHN): 92%
- growth at 0.01 µM (MOLT-4 [5]): 104%
- growth at 100 µM (KM12 [6]): 20%
- growth at 1 µM (Malme-3M [7]): 91%
- growth at 0.01 µM (NCI-H226): 85%
- growth at 1 µM (NCI-H322M): 90%
- growth at 1 µM (A498): 72%
- growth at 0.1 µM (CCRF-CEM): 97%
- growth at 0.01 µM (OVCAR-4 [8]): 95%
- growth at 0.01 µM [9]: 106%
- GI50 (SK-MEL-5; read-out: GI50): 1.22 µM
- CC50 (SK-MEL-5; [22]): > 100 µM
- TGI (SK-MEL-5; read-out: TGI): 4.3 µM
- GI50 (SK-MEL-5; read-out: pGI50 (converted)): 1.23 µM
- CC50 (SK-MEL-5; [23]): > 100 µM
- TGI (SK-MEL-5; read-out: pTGI (converted)): 4.27 µM
- growth at 0.01 µM (SN12C): 97%
- growth at 0.1 µM (HL-60(TB)): 96%
- GI50 (MOLT-4 [10]; read-out: GI50): 3.34 µM
- CC50 (MOLT-4 [10]; [22]): > 100 µM
- TGI (MOLT-4 [10]; read-out: TGI): > 100 µM
- GI50 (MOLT-4 [10]; read-out: pGI50 (converted)): 3.31 µM
- CC50 (MOLT-4 [10]; [23]): > 100 µM
- TGI (MOLT-4 [10]; read-out: pTGI (converted)): > 100 µM
- growth at 0.1 µM (MOLT-4 [11]): 102%
- GI50 (UACC-257 [12]; read-out: GI50): 4.81 µM
- CC50 (UACC-257 [12]; [22]): > 100 µM
- TGI (UACC-257 [12]; read-out: TGI): > 100 µM
- GI50 (UACC-257 [12]; read-out: pGI50 (converted)): 4.79 µM
- CC50 (UACC-257 [12]; [23]): > 100 µM
- TGI (UACC-257 [12]; read-out: pTGI (converted)): > 100 µM
- growth at 0.1 µM (RXF 393): 91%
- growth at 100 µM (786-0): 4%
- growth at 0.1 µM (SW-620): 95%
- growth at 0.1 µM (SNB-75): 89%
- GI50 (OVCAR-8; read-out: GI50): 4.97 µM
- CC50 (OVCAR-8; [22]): > 100 µM
- TGI (OVCAR-8; read-out: TGI): > 100 µM
- GI50 (OVCAR-8; read-out: pGI50 (converted)): 5.01 µM
- CC50 (OVCAR-8; [23]): > 100 µM
- TGI (OVCAR-8; read-out: pTGI (converted)): > 100 µM
- growth at 100 µM (HOP-92 [13]): -35%
- GI50 (MDA-MB-231 [14]; read-out: GI50): 4.53 µM
- CC50 (MDA-MB-231 [14]; [22]): > 100 µM
- TGI (MDA-MB-231 [14]; read-out: TGI): 33.4 µM
- GI50 (MDA-MB-231 [14]; read-out: pGI50 (converted)): 4.57 µM
- CC50 (MDA-MB-231 [14]; [23]): > 100 µM
- TGI (MDA-MB-231 [14]; read-out: pTGI (converted)): 33.1 µM
- GI50 (HOP-92 [15]; read-out: GI50): 1.19 µM
- CC50 (HOP-92 [15]; [22]): > 100 µM
- TGI (HOP-92 [15]; read-out: TGI): 5.36 µM
- GI50 (HOP-92 [15]; read-out: pGI50 (converted)): 1.2 µM
- CC50 (HOP-92 [15]; [23]): > 100 µM
- TGI (HOP-92 [15]; read-out: pTGI (converted)): 5.37 µM
- growth at 0.01 µM [16]: 104%
- growth at 0.1 µM (M14): 91%
- growth at 0.01 µM (NCI-H460): 104%
- growth at 0.1 µM (DU-145 [17]): 107%
- growth at 0.01 µM (UACC-257 [18]): 96%
- GI50 ([19]; read-out: GI50): 5.1 µM
- CC50 [19, 22]: > 100 µM
- TGI ([19]; read-out: TGI): > 100 µM
- GI50 ([19]; read-out: pGI50 (converted)): 5.13 µM
- CC50 [19, 23]: > 100 µM
- TGI ([19]; read-out: pTGI (converted)): > 100 µM
- GI50 (SK-MEL-2; read-out: GI50): 3.07 µM
- CC50 (SK-MEL-2; [22]): > 100 µM
- TGI (SK-MEL-2; read-out: TGI): 8.07 µM
- GI50 (SK-MEL-2; read-out: pGI50 (converted)): 3.09 µM
- CC50 (SK-MEL-2; [23]): > 100 µM
- TGI (SK-MEL-2; read-out: pTGI (converted)): 8.13 µM
- growth at 0.01 µM (MDA-MB-231 [20]): 99%
- growth at 0.01 µM (DU-145 [21]): 104%
